Assay results reported in publication PMC4744035, “In Vivo, In Vitro, and In Silico Characterization of Peptoids as Antimicrobial Agents” (PLoS ONE, 2016).
Values after ≈ are worked out from the molar mass of the structure shown. Square brackets hold non-standard residues; d marks the D form. Peptide text beside a SMILES is read from it. Nspe = C[C@H](NCC(=O)O)c1ccccc1; Nlys = NCCCCNCC(=O)O

Key:
E. coli ATCC 35218 = format: cell-based
Method in brief: (§1)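 MICs determined by 2:1 serial broth microdilution in cation-adjusted Mueller-Hinton broth per CLSI M7-A6, using inoculum at 1 x 10^6 CFU/mL mixed 1:1 with peptoid solution. Three independent replicates, each with two parallel trials.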

B. subtilis ATCC 6633 = format: cell-based
Method in brief: as §1

S. aureus (ATCC 25923) = assay: Murine model of invasive S. aureus infection; format: in vivo, CD1 mice; details: mice, 4 mg/kg
Procedure: Animal experiments were performed in accordance with University of British Columbia Care Ethics Committee approval and guidelines as per animal care certificate #A04-0020. Female CD1 mice (6–8 week old) were weighed, marked, and injected with 200 μL of S. aureus (ATCC 25923) ~10^9 CFU/mouse suspended in Mueller Hinton broth containing 5% mucin and injected intraperitoneally. Four hours after infection, animals were treated with 4 mg/kg or 100μg per mouse of peptoid 1 (experimental group; n = 10) or an equivalent volume of saline (control group; n = 10). All animals were monitored two hours after each injection step, they were also evaluated at the end of the working day and the next morning a couple of hours prior to the experimental endpoint. Humane endpoints criteria; immobilization and shaking, were put down but none of the test subjects were evaluated to reach these endpoints prior to the experimental endpoint. The mice were euthanized 24 hours post-infection using CO2. The peritoneal cavity was exposed and washed with 5 mL PBS. […] Plates were incubated overnight at 37°C and colonies were counted the following day. […] The statistical differences between peptide treated and naïve mice were assessed using PRISM® (GraphPad Software Inc., San Diego, CA) using contingency tables Chi-square test, with a confidence interval of 99%. […]

erythrocytes = assay: Hemolytic activity (HD10/HD50); format: cell-based; details: erythrocytes
From the text: Table 1 Characteristics of antimicrobial peptoids, screened for activity against B. subtilis and E. coli bacterial strains. | column: HD10 / HD50

[1] = Acute toxicity screen in healthy mice; format: in vivo; details: three healthy mice, 4 mg/kg (100 μg per mouse) intraperitoneally
Procedure: This dosage was selected to be on the conservative end of the dosage range typically evaluated for AMPs (1 mg/kg to 24 mg/kg) in other animal studies. To screen for acute signs of toxicity, three healthy mice were injected intraperitoneally with 4 mg/kg (100 μg per mouse) of peptoid 1, and a second control group with an equivalent volume of saline.

E. coli 63103 (ESBL) = assay: microbe, parasite or virus in culture; details: E. coli 63103 (ESBL)
Method in brief: (§2)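 Growth inhibition is determined by modified microdilution in Mueller Hinton broth, with peptoids prepared in 0.01% acetic acid containing 0.2% bovine serum albumin. Final inoculum is 2–7 x 10^5 CFU/mL; endpoint is absence of growth after overnight 37°C.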

[2] = tested on: P. aeruginosa H1030 (MDR); assay: microbe, parasite or virus in culture; details: P. aeruginosa H1030 (MDR)
Method in brief: as §2

P. aeruginosa 198 (MDR) = assay: microbe, parasite or virus in culture; details: P. aeruginosa 198 (MDR)
Method in brief: as §2

E. faecalis W61950 (VRE) = assay: microbe, parasite or virus in culture; details: E. faecalis W61950 (VRE)
Method in brief: as §2

P. maltophilia ATCC13637 = assay: microbe, parasite or virus in culture; details: P. maltophilia ATCC13637
Method in brief: as §2

E. coli 64771 (ESBL) = assay: microbe, parasite or virus in culture; details: E. coli 64771 (ESBL)
Method in brief: as §2

E. faecalis F43559 (VRE) = assay: microbe, parasite or virus in culture; details: E. faecalis F43559 (VRE)
Method in brief: as §2

[3] = tested on: P. aeruginosa LES400 (MDR); assay: microbe, parasite or virus in culture; details: P. aeruginosa LES400 (MDR)
Method in brief: as §2

[4] = tested on: 20 bacterial strains (13 Gram-negative, 7 Gram-positive)
Procedure: The MICs of test agents were measured using a modified broth micro-dilution method in Difco Mueller Hinton medium, on a panel of bacterial pathogens that were both susceptible and resistant to common antibiotics (S1 File). Briefly, serial dilutions were performed in 0.01% acetic acid containing 0.2% bovine serum albumin at 10-fold the desired final concentration. Ten μL of the 10-fold concentrated test reagents were added to each well of a 96-well polypropylene microtitre plate containing 90 μL of Mueller Hinton media per well. Bacteria were added to the plate from an overnight culture at a final concentration of 2–7 x 10^5 CFU/mL and incubated overnight at 37°C. The MIC is defined as the concentration at which no growth was observed.
Screening of peptoid antimicrobial activity against a panel of multidrug resistant superbugs was done according to the protocol described in the manuscript. The bacterial strains used in this panel included; P. aeruginosa PAO1 strain H103 [1], P. maltophilia ATCC#13637, S. aureus ATCC#25923 [1], E. faecalis ATCC#29212 [2], and E. cloacae 218R, constitutively expressing Class C chromosomal β-lactamase, were from the Hancock lab strains collection. An MRSA clinical isolate was kindly provided by Anthony Chow (Vancouver General Hospital, Vancouver, Canada). Two Klebsiella pneumoniae and two E. coli clinical isolates expressing extended spectrum β-lactamases (ESBL) were kindly provided by George Zhanel (Health Sciences Centre, Winnipeg, Canada). Vancomycin-resistant clinical isolates of Enterococcus faecalis and E. faecium were obtained from Ana M. Paccagnella (BC Centre for Disease Control, Vancouver, Canada). Three clinical isolates (#9, #198 and #213) of multi-drug resistant P. aeruginosa, were kindly provided by Carlos Kiffer (University of São Paulo, Brazil). […] Three P. aeruginosa clinical isolates of the Liverpool epidemic strain (LES) (H1027, H1030 and LES400) were all kindly provided by Craig Winstanley (University of Liverpool, UK). […] All tested bacterial strains were categorized as biohazard level 2 pathogens.

Question: Which results are given for C[C@@H](c1ccccc1)N(CC(N)=O)C(=O)CN(C(=O)CN(CCCCN)C(=O)CN(C(=O)CN(C(=O)CN(CCCCN)C(=O)CN(C(=O)CN(C(=O)CN(CCCCN)C(=O)CN(C(=O)CN(C(=O)CNCCCCN)[C@@H](C)c1ccccc1)[C@@H](C)c1ccccc1)[C@@H](C)c1ccccc1)[C@@H](C)c1ccccc1)[C@@H](C)c1ccccc1)[C@@H](C)c1ccccc1)[C@@H](C)c1ccccc1 [Peptoid 1, H-(NLys-Nspe-Nspe)4-NH2] (H-[Nlys][Nspe][Nspe][Nlys][Nspe][Nspe][Nlys][Nspe][Nspe][Nlys][Nspe][Nspe]-NH2)?
Answer: MIC E. coli (E. coli ATCC 35218): 6.3 µM (≈ 11.5 µg/mL); MIC B. subtilis (B. subtilis ATCC 6633): 1.6 µM (≈ 2.91 µg/mL); toxicity (S. aureus (ATCC 25923)): no medium-term toxicity; HD10 (hemolytic activity) (erythrocytes; first value of HD10 / HD50 cell): 21; HD50 (hemolytic activity) (erythrocytes; second value of HD10 / HD50 cell): 100; acute signs of toxicity, 24 hours post-injection observation [1]: all mice appeared to be healthy and exhibited normal activity and no weight loss or abject morbidity; MIC (E. coli 63103 (ESBL)): 2 µg/mL (≈ 1.1 µM); MIC [2]: 4 µg/mL (≈ 2.2 µM); MIC (P. aeruginosa 198 (MDR)): 4 µg/mL (≈ 2.2 µM); MIC (E. faecalis W61950 (VRE)): 8 µg/mL (≈ 4.4 µM); MIC (P. maltophilia ATCC13637): 2 µg/mL (≈ 1.1 µM); MIC (E. coli 64771 (ESBL)): 2 µg/mL (≈ 1.1 µM); MIC (E. faecalis F43559 (VRE)): 4 µg/mL (≈ 2.2 µM); MIC [3]: 2 µg/mL (≈ 1.1 µM); median MIC against all Gram-positive strains tested ([4]; 7 Gram-positive strains): 2 µg/mL; number of pathogens with MIC ≤ 8 μg/mL ([4]; out of the 20 pathogens tested): 19
